Experimental data: ChEMBL document CHEMBL4715851, “Research advances on selective phosphatidylinositol 3 kinase δ (PI3Kδ) inhibitors” (Bioorg Med Chem Lett, 2020)

Experiments:
[1] = Inhibition of C-terminal PI3Kdelta/p85 (unknown origin) expressed in baculovirus expression system using Phosphatidylinositol as substrate in presence of ATP by TR-FRET assay; design: species or system Homo sapiens
[2] = target: T1, Phosphatidylinositol 4,5-bisphosphate 3-kinase catalytic subunit delta isoform (Homo sapiens, UniProt O00329); test: Inhibition of PI3K-delta (unknown origin)
T1 sequence (O00329 whole entry): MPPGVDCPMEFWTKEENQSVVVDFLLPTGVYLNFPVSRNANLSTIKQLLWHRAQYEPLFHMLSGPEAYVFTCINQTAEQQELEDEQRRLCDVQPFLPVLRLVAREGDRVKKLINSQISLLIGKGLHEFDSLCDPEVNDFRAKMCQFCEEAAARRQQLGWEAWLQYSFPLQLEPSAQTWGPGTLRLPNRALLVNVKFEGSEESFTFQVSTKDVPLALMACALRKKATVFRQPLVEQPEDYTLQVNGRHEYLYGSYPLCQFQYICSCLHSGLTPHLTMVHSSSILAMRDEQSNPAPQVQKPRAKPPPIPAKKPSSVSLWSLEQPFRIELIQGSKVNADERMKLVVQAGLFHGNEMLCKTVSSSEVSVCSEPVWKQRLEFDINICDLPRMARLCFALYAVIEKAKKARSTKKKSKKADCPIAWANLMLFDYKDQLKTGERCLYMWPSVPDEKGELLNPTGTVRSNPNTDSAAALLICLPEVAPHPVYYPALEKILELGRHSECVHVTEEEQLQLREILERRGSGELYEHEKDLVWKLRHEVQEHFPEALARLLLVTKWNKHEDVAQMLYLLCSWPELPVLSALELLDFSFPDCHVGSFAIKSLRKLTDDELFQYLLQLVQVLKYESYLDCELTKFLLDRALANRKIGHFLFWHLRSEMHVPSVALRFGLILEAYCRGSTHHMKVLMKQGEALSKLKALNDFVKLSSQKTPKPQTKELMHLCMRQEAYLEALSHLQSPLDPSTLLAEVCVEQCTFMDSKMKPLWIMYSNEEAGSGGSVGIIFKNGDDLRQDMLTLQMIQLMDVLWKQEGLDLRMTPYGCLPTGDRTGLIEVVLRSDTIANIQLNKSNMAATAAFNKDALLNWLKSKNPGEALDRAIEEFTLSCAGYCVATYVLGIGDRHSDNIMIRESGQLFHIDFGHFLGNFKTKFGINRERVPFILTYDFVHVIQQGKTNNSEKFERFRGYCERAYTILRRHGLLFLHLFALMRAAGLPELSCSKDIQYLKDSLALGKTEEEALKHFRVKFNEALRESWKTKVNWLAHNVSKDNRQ

IC50 [1] [nM]	IC50 [2] [nM]	SMILES
< 100		C[C@H](Nc1ncnc2scnc12)c1cc2cccc(-c3cnn(C)c3)c2c(=O)n1-c1ccccc1
	170	C=Cc1ccc2oc3ccc(=O)n(-c4cccc(NC(=O)c5ccc(OC)nc5)c4)c3c2c1
